The source of these data is PubChem BioAssay (NCI).

Among the test systems are LOX IMVI melanoma; MCF7 breast; MDA-MB-231 breast; NCI/ADR-RES ovarian; OVCAR-4 ovarian; SK-MEL-28 melanoma; SN12C renal; UACC-62 melanoma; OVCAR-3 ovarian; NCI-H226 lung.
Common to all, as to assay: inhibition of tumour cell growth, NCI panel, 48 h

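Five concentrations, 48 hours, 96-well plates. The concentration for full growth arrest is given as TGI.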 Where a SMILES comes first, the peptide text is derived from it. The star is where a group is joined. Boc = CC(C)(C)OC(=O)*; OBn = c1ccc(CO*)cc1

In the case of `COc1ccccc1Nc1nc(NNC(=O)Cc2ccccc2)nc(NNC(=O)c2ccncc2)n1`, the TGI in the assay on LOX IMVI melanoma, in the assay with MCF7 breast, with MDA-MB-231 breast, with NCI/ADR-RES ovarian, in the assay with OVCAR-4 ovarian and with SK-MEL-28 melanoma was over 10 µM each time. For the same molecule, the TGI in the assay with SN12C renal and in the assay on UACC-62 melanoma was over 10 µM each time.

Consider `CSc1c(C#N)c2n(c3ccccc13)c1ccccc1[n+]2C`, for which the TGI in the assay with LOX IMVI melanoma is over 100 µM; in the assay on MCF7 breast, over 100 µM; in the assay on MDA-MB-231 breast, 60.1 µM; in the assay on NCI/ADR-RES ovarian, 68.4 µM; in the assay on OVCAR-3 ovarian, over 100 µM; with OVCAR-4 ovarian, over 100 µM. The TGI in the assay with SK-MEL-28 melanoma was over 100 µM; with SN12C renal, 53.1 µM; in the assay on UACC-62 melanoma, 47.1 µM.

Regarding `COc1cc2c(cc1OC)-c1c3c(cc4c1[C@@H](C2)N(C)CC4)OCO3`, the TGI in the assay with LOX IMVI melanoma is 75 µM; in the assay on MCF7 breast, 27.3 µM; in the assay with NCI-H226 lung it was 23 µM; in the assay with NCI/ADR-RES ovarian, 30.2 µM; in the assay with OVCAR-3 ovarian it was 44.6 µM; in the assay on OVCAR-4 ovarian, 22.8 µM. The TGI worked out at 24.9 µM in the assay with SK-MEL-28 melanoma, 39 µM in the assay with SN12C renal and 20.2 µM in the assay on UACC-62 melanoma.

On to `Cc1ccc(SC(=O)N2C(=S)NC(=NC3CCCCC3)C23CCCCC3)cc1`, for which the TGI with LOX IMVI melanoma, with MCF7 breast, with MDA-MB-231 breast, with NCI/ADR-RES ovarian, in the assay on OVCAR-3 ovarian and in the assay on OVCAR-4 ovarian was over 100 µM throughout. Further, the TGI in the assay on SK-MEL-28 melanoma, with SN12C renal and in the assay on UACC-62 melanoma was over 100 µM each time.

With `CSC1=NS(=O)(=O)c2cc(C(=O)NN(C)C(=O)c3cc4c(cc3Cl)SC(SC)=NS4(=O)=O)c(Cl)cc2S1`, the TGI in the assay on LOX IMVI melanoma, with MCF7 breast, with NCI-H226 lung, in the assay on NCI/ADR-RES ovarian, in the assay with OVCAR-3 ovarian and in the assay on OVCAR-4 ovarian was over 10 µM throughout. Also, the TGI in the assay on SK-MEL-28 melanoma and in the assay with SN12C renal was over 10 µM in each case.

In the case of `CC1(Cl)CC2C(CC1Sc1nnnn1-c1ccccc1)C2(C)C` (stereo not given), the TGI in the assay with LOX IMVI melanoma, in the assay on NCI-H226 lung, with OVCAR-3 ovarian, with OVCAR-4 ovarian, with SK-MEL-28 melanoma and in the assay on SN12C renal was over 100 µM in each case. The molecule also had a TGI in the assay on UACC-62 melanoma of over 100 µM.

Regarding `NCCCCNCCCNC(=O)c1nc(-c2csc(CCN)n2)sc1Cl`, the TGI with NCI-H226 lung, in the assay with OVCAR-3 ovarian, in the assay with OVCAR-4 ovarian, in the assay on SK-MEL-28 melanoma, in the assay with SN12C renal and with UACC-62 melanoma was over 100 µM throughout.

Turning to `COc1cc(S(=O)(=O)Nc2ccc(-c3csc(N4C(=O)CSC4c4ccccc4)n3)cc2)ccc1Cl` (stereo not given), the TGI in the assay with LOX IMVI melanoma is over 100 µM; with MCF7 breast, 87.4 µM; in the assay on NCI-H226 lung, over 100 µM; with NCI/ADR-RES ovarian it was over 100 µM; in the assay with OVCAR-3 ovarian, over 100 µM; in the assay on OVCAR-4 ovarian, over 100 µM. For the same molecule, the results for the TGI in the assay with SK-MEL-28 melanoma, in the assay on SN12C renal and in the assay with UACC-62 melanoma were 65.1 µM, over 100 µM and 39.6 µM, respectively.

For the molecule `S=C(S)NCC1CCC(CNC(=S)S)CC1` (stereo not given), the TGI was 40.8 µM in the assay on LOX IMVI melanoma; 81.3 µM in the assay on MCF7 breast; 70.1 µM in the assay with MDA-MB-231 breast; over 100 µM in the assay with NCI/ADR-RES ovarian; 30.3 µM in the assay on OVCAR-3 ovarian; over 100 µM with OVCAR-4 ovarian. Besides, the TGI in the assay on SK-MEL-28 melanoma is over 100 µM; with SN12C renal, 44 µM; in the assay with UACC-62 melanoma, over 100 µM.

Turning to `Cc1ccc(N=Nc2c(C)c(C#N)c(=S)n(C3OC(CO)C(O)C(O)C3O)c2-c2ccccc2)cc1` (stereo not given), the TGI is 31.2 µM in the assay with LOX IMVI melanoma; 34.7 µM with MCF7 breast; over 100 µM with MDA-MB-231 breast; over 100 µM in the assay on NCI/ADR-RES ovarian; 41 µM in the assay with OVCAR-3 ovarian; over 100 µM in the assay on OVCAR-4 ovarian. Besides, the TGI is 43 µM in the assay on SK-MEL-28 melanoma, over 100 µM in the assay with SN12C renal and 32 µM in the assay with UACC-62 melanoma.

With `Cc1c(-c2ccccc2)c(C#N)c2nnc(C(N)=O)c(N)n12`, the TGI with LOX IMVI melanoma, with MCF7 breast, in the assay with MDA-MB-231 breast, in the assay with NCI/ADR-RES ovarian, in the assay on OVCAR-3 ovarian and with OVCAR-4 ovarian was over 100 µM each time. Moreover, the TGI in the assay with SK-MEL-28 melanoma, with SN12C renal and with UACC-62 melanoma was over 100 µM each time.

Regarding `Cc1ccc(-c2n[nH]c(=O)[nH]2)cc1[N+](=O)[O-]`, the TGI in the assay with LOX IMVI melanoma, in the assay on MCF7 breast, in the assay with NCI-H226 lung, in the assay with NCI/ADR-RES ovarian, in the assay with OVCAR-3 ovarian and in the assay with OVCAR-4 ovarian was over 100 µM in each case. Moreover, the TGI in the assay on SK-MEL-28 melanoma, in the assay with SN12C renal and with UACC-62 melanoma was over 100 µM each time.

Consider `CC(=O)Oc1ccc(C2COc3cc(OC(C)=O)c(OC(C)=O)cc3C2)cc1` (stereo not given), for which the TGI with LOX IMVI melanoma is over 55.5 µM; in the assay with MCF7 breast, 35.2 µM; in the assay with NCI-H226 lung, 54.7 µM; with NCI/ADR-RES ovarian it was 48.7 µM; in the assay with OVCAR-3 ovarian, 25.2 µM; with OVCAR-4 ovarian it was 29.1 µM. Moreover, the TGI worked out at 34.2 µM in the assay with SK-MEL-28 melanoma, 52 µM in the assay on SN12C renal and 24.2 µM in the assay with UACC-62 melanoma.

Take `CC(C)(C)OC(=O)NC(Cc1ccccc1)C(=O)NC(Cc1ccccc1)C(=O)NCC(=O)OCc1ccccc1` (stereo not drawn) (Boc-Phe-Phe-Gly-OBn; configuration not given here): the TGI is 24.5 µM with LOX IMVI melanoma; over 100 µM in the assay with MCF7 breast; over 100 µM in the assay on NCI/ADR-RES ovarian; 46.1 µM in the assay with OVCAR-3 ovarian; over 100 µM in the assay on OVCAR-4 ovarian; 42.7 µM in the assay on SK-MEL-28 melanoma. The TGI was determined as 85.9 µM in the assay with SN12C renal and 38.7 µM in the assay with UACC-62 melanoma.

In the case of `COc1c2cc(C(C)(C)C)cc1Cc1cccc(c1O)Cc1cc(C(C)(C)C)cc(c1OC)Cc1cccc(c1O)Cc1cc(C(C)(C)C)cc(c1OC)Cc1cccc(c1O)C2`, the TGI in the assay on MCF7 breast, in the assay with MDA-MB-231 breast, with NCI/ADR-RES ovarian, in the assay on OVCAR-3 ovarian, with SK-MEL-28 melanoma and with SN12C renal was over 100 µM each time. The same molecule came in with a TGI in the assay with UACC-62 melanoma of over 100 µM.

Consider `C#CCn1c(=O)c(C#N)c(O)c2cc3ccccc3nc21`, for which the TGI in the assay on LOX IMVI melanoma, in the assay with MCF7 breast, with NCI-H226 lung, with NCI/ADR-RES ovarian, in the assay on OVCAR-3 ovarian and with SK-MEL-28 melanoma was over 100 µM each time. Also, the TGI in the assay on SN12C renal and in the assay on UACC-62 melanoma was over 100 µM in each case.

For `c1ccc2c(Cc3nnc4sc(SSc5nn6c(Cc7c[nH]c8ccccc78)nnc6s5)nn34)c[nH]c2c1`, the TGI in the assay on MCF7 breast was 46.4 µM; with NCI/ADR-RES ovarian it was 44.4 µM; with OVCAR-3 ovarian, 29.2 µM; in the assay with OVCAR-4 ovarian, over 100 µM; in the assay with SK-MEL-28 melanoma, over 100 µM; in the assay with SN12C renal it was 56.3 µM. In the assay on UACC-62 melanoma, this molecule displayed a TGI of 33.7 µM.

Take `NNC(=S)N1CCN(C(=S)NN)CC1`: the TGI in the assay on LOX IMVI melanoma, in the assay with MDA-MB-231 breast, in the assay with OVCAR-3 ovarian, with OVCAR-4 ovarian, in the assay on SK-MEL-28 melanoma and in the assay on SN12C renal was over 100 µM each time. This molecule also came in with a TGI in the assay on UACC-62 melanoma of over 100 µM.

Consider `C/C(O)=C/c1nc2ccc([N+](=O)[O-])cc2nc1/C=C(/C)O`, for which the TGI with LOX IMVI melanoma, in the assay with MDA-MB-231 breast, with NCI-H226 lung, with NCI/ADR-RES ovarian, in the assay on OVCAR-3 ovarian and in the assay on OVCAR-4 ovarian was over 100 µM in each case. In addition, the TGI in the assay on SK-MEL-28 melanoma, in the assay with SN12C renal and with UACC-62 melanoma was over 100 µM in each case.

In the case of `Cc1ccc(C(=O)/C(C#N)=C/Nc2c(C)n(C)n(-c3ccccc3)c2=O)cc1`, the TGI in the assay with LOX IMVI melanoma, with MCF7 breast, in the assay on MDA-MB-231 breast, with NCI-H226 lung, in the assay on OVCAR-3 ovarian and with OVCAR-4 ovarian was over 100 µM in each case. For the same molecule, the TGI in the assay with SK-MEL-28 melanoma, in the assay with SN12C renal and in the assay with UACC-62 melanoma was over 100 µM throughout.

Regarding `COc1cc(/C=C2\CCC(C)C3=C2NC(=S)NC3c2cc(OC)c(OC)c(OC)c2)cc(OC)c1OC` (stereo not given), the TGI in the assay with LOX IMVI melanoma, with MCF7 breast, in the assay on MDA-MB-231 breast, with OVCAR-4 ovarian, in the assay on SK-MEL-28 melanoma and with SN12C renal was over 100 µM each time. In the assay on UACC-62 melanoma, this molecule returned a TGI of over 100 µM.

On to `CC(C)(C)OC[C@H](O)CC#N`, for which the TGI in the assay with LOX IMVI melanoma, in the assay with MCF7 breast, in the assay on MDA-MB-231 breast, with NCI-H226 lung, in the assay with OVCAR-3 ovarian and in the assay with OVCAR-4 ovarian was over 100 µM in each case. The TGI in the assay on SK-MEL-28 melanoma, in the assay with SN12C renal and in the assay on UACC-62 melanoma was over 100 µM each time.

`O=c1[nH]c2cc3[nH]c4ncccc4c(=O)c3cc2[nH]1`: the TGI with LOX IMVI melanoma, with MDA-MB-231 breast, in the assay on NCI-H226 lung, with NCI/ADR-RES ovarian, in the assay with OVCAR-3 ovarian and with OVCAR-4 ovarian was over 10 µM in each case. The TGI with SK-MEL-28 melanoma, in the assay with SN12C renal and with UACC-62 melanoma was over 10 µM each time.
